Data: patent US7834023B2 (Portola Pharmaceuticals, Inc., priority 2006, dated 2010)

Columns and labels:
[1] = test system: human platelet-rich plasma (PRP); assay: PRP assay: inhibition of ADP-mediated platelet aggregation in vitro; assay type: cell-based; details: Homo sapiens, Platelet, ADP-induced aggregation
Description: The effect of testing the compound according to the invention on ADP-induced human platelet aggregation was assessed in a 96-well microtiter assay (see generally the procedures in Jantzen, H. M. et al. (1999) Thromb. Hemost. 81:111-117) or standard cuvette light transmittance aggregometry using either human platelet-rich plasma (PRP) or human washed platelets.
For preparation of human platelet-rich plasma for aggregation assays, human venous blood was collected from healthy, drug-free volunteers into 0.38% sodium citrate (0.013 M, pH 7.0 final). Platelet-rich plasma (PRP) is prepared by centrifugation of whole blood at 160×g for 20 minutes at room temperature. The PRP layer is removed, transferred to a new tube, and the platelet count is adjusted, if necessary, to achieve a platelet concentration of ˜3×10^8 platelets/ml using platelet-poor plasma (PPP). PPP is prepared by centrifugation of the remaining blood sample (after removal of PRP) for 20 minutes at 800×g. This preparation of PRP can subsequently be used for aggregation assays in either a 96-well plate or standard cuvette aggregometry.
For cuvette light transmittance aggregation assays, serial dilutions (1:3) of test compounds were prepared in 100% DMSO in a 96 well V-bottom plate (final DMSO concentration in the cuvette was 0.6%). The test compound (3 μl of serial dilutions in DMSO) was preincubated with PRP for 30-45 seconds prior to initiation of aggregation reactions, which were performed in a ChronoLog aggregometer by addition of agonist (5 or 10 μM ADP) to 490 μL of PRP at 37° C. In some cases, light transmittance aggregometry was performed using 490 μL of washed platelets (prepared as described above) at 37° C., and aggregation was initiated by addition of 5 μM ADP and 0.5 mg/ml human fibrinogen (American Diagnostics, Inc., Greenwich, Conn.). The aggregation reaction is recorded for ˜5 min, and maximum extent of aggregation is determined by the difference in extent of aggregation at baseline, compared to the maximum aggregation that occurs during the five minute period of the assay. Inhibition of aggregation was calculated as the maximum aggregation observed in the presence of inhibitor, compared to that in the absence of inhibitor. IC50s were derived by non-linear regression analysis using the Prism software (GraphPad, San Diego, Calif.).
Inhibition of ADP-dependent aggregation was also determined in 96-well flat-bottom microtiter plates using a microtiter plate shaker and plate reader similar to the procedure described by Frantantoni et al., Am. J. Clin. Pathol. 94, 613 (1990). All steps are performed at room temperature. For 96-well plate aggregation using platelet-rich plasma (PRP), the total reaction volume of 0.2 ml/well includes 180 μl of PRP (˜3×10^8 platelets/ml, see above), 6 μl of either serial dilution of test compounds in 20% DMSO or buffer (for control wells), and 10 μl of 20×ADP agonist solution (100 μM). The OD of the samples is then determined at 450 nm using a microtiter plate reader (Softmax, Molecular Devices, Menlo Park, Calif.) resulting in the 0 minute reading. The plates are then agitated for 5 min on a microtiter plate shaker and the 5 minute reading is obtained in the plate reader. Aggregation is calculated from the decrease of OD at 450 nm at t=5 minutes compared to t=0 minutes and is expressed as % of the decrease in the ADP control samples after correcting for changes in the unaggregated control samples. IC50s were derived by non-linear regression analysis.

P2Y12 receptor = molecular target: T1, P2Y12 receptor (Homo sapiens, UniProt Q9H244); assay: platelet ADP receptor binding assay (ARB): inhibition of [3H]2-MeS-ADP binding to platelets; details: [3H]2-MeS-ADP binding to apyrase-washed human platelets
T1 construct: endogenous in cells; host or cells: human platelets (outdated from blood banks or fresh), apyrase-washed, whole
Method in brief: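 Apyrase-washed human platelets (1×10^8 per well) were preincubated 5 min with serial compound dilutions in Hepes-Tyrode's/0.1% BSA/0.6% DMSO, then incubated 15 min at room temperature with 1 nM [3H]2-MeS-ADP. Filter-bound radioactivity gave specific binding (nonspecific: 10 μM 2-MeS-ADP), and IC50s came from non-linear regression.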

T1 sequence (Q9H244 whole entry): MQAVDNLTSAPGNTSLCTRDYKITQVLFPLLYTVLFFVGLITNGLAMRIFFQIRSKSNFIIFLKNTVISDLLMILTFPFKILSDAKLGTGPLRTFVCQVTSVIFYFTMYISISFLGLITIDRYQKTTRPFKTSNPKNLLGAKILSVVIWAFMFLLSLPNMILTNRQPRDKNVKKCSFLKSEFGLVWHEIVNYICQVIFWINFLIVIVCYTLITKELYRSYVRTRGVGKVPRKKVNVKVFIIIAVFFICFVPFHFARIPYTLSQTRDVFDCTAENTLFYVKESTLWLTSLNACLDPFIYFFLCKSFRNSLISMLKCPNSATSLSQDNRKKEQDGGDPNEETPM

Row | Compound | IC50 [1] [nM] | IC50 (P2Y12 receptor) [nM]
1 | O=C(NC(C(=O)O)c1cccs1)c1ccc(-n2c(=O)[nH]c3cc(NCc4ccc(F)cc4)ccc3c2=O)cc1 (centres unmarked) [Compound 2, 2-(4-(7-(4-fluorobenzylamino)-2,4-dioxo-1,2-dihydroquinazolin-3(4H)-yl)benzamido)-2-(thiophen-2-yl)acetic acid] | > 30000 | 50 to 500
2 | CNc1cc2[nH]c(=O)n(-c3ccc(C(=O)N[C@@H](c4noc(=O)[nH]4)c4ccc(Cl)s4)cc3)c(=O)c2cc1F [Compound 45, (S)-N-((5-chlorothiophen-2-yl)(5-oxo-4,5-dihydro-1,2,4-oxadiazol-3-yl)methyl)-4-(6-fluoro-7-(methylamino)-2,4-dioxo-1,2-dihydroquinazolin-3(4H)-yl)benzamide] | < 10000 | < 50
3 | CNc1cc2[nH]c(=O)n(-c3ccc(C(=O)NC(c4noc(=O)[nH]4)c4ccc(Cl)s4)cc3OC)c(=O)c2cc1F (centres unmarked) [Compound 53, N-((5-chlorothiophen-2-yl)(5-oxo-4,5-dihydro-1,2,4-oxadiazol-3-yl)methyl)-4-(6-fluoro-7-(methylamino)-2,4-dioxo-1,2-dihydroquinazolin-3(4H)-yl)-3-methoxybenzamide] | > 30000 | 50 to 500
4 | CNc1cc2[nH]c(=O)n(-c3ccc(C(=O)NC(c4noc(=S)[nH]4)c4ccc(Cl)s4)cc3)c(=O)c2cc1F (centres unmarked) [Compound 32, N-((5-chlorothiophen-2-yl)(5-thioxo-4,5-dihydro-1,2,4-oxadiazol-3-yl)methyl)-4-(6-fluoro-7-(methylamino)-2,4-dioxo-1,2-dihydroquinazolin-3(4H)-yl)benzamide] | < 10000 | 50 to 500
5 | CCOC(=O)C(NC(=O)c1ccc(N2COc3cc(NC)c(F)cc3C2=O)cc1)c1ccc(Cl)s1 (centres unmarked) [Compound 67, ethyl 2-(5-chlorothiophen-2-yl)-2-(4-(6-fluoro-7-(methylamino)-4-oxo-2H-benzo[e][1,3]oxazin-3(4H)-yl)benzamido)acetate] | – | 50 to 500
6 | NC(=O)c1ccc2c(=O)n(-c3ccc(C(=O)NC(C(=O)O)c4ccc(Cl)s4)cc3)ccc2c1 (centres unmarked) [Compound 94, 2-(4-(6-carbamoyl-1-oxoisoquinolin-2(1H)-yl)benzamido)-2-(5-chlorothiophen-2-yl)acetic acid] | – | > 500
7 | CNc1cc2c(cc1F)C(=O)N(c1ccc(C(=O)N[C@@H](c3noc(=O)[nH]3)c3ccc(Cl)s3)cc1)CO2 [Compound 88, (S)-N-((5-chlorothiophen-2-yl)(5-oxo-4,5-dihydro-1,2,4-oxadiazol-3-yl)methyl)-4-(6-fluoro-7-(methylamino)-4-oxo-2H-benzo[e][1,3]oxazin-3(4H)-yl)benzamide] | – | < 50
8 | O=C(Nc1ccc(-n2c(=O)[nH]c3cc(NCc4ccc(F)cc4)ccc3c2=O)cc1)NC(Cc1cccs1)C(=O)O (centres unmarked) [Compound 109, 2-(3-(4-(7-(4-fluorobenzylamino)-2,4-dioxo-1,2-dihydroquinazolin-3(4H)-yl)phenyl)ureido)-3-(thiophen-2-yl)propanoic acid] | – | 50 to 500
9 | CNc1cc2c(=O)n(-c3ccc(C(=O)NC(C(=O)O)c4ccc(Cl)s4)cc3)c(=O)[nH]c2cc1F (centres unmarked) [Compound 48, 2-(5-chlorothiophen-2-yl)-2-(4-(7-fluoro-6-(methylamino)-2,4-dioxo-1,2-dihydroquinazolin-3(4H)-yl)benzamido)acetic acid] | – | 50 to 500
10 | O=C(NC(C(=O)O)c1ccc(Cl)s1)c1ccc(-n2c(=O)[nH]c3ccccc3c2=O)cc1 (centres unmarked) [Compound 33, 2-(5-chlorothiophen-2-yl)-2-(4-(2,4-dioxo-1,2-dihydroquinazolin-3(4H)-yl)benzamido)acetic acid] | – | > 500
11 | CNc1cc2[nH]c(=O)n(-c3cc(C(=O)NC(C(=O)O)c4ccc(Cl)s4)cs3)c(=O)c2cc1F (centres unmarked) [Compound 113, 2-(5-chlorothiophen-2-yl)-2-(5-(6-fluoro-7-(methylamino)-2,4-dioxo-1,2-dihydroquinazolin-3(4H)-yl)thiophene-3-carboxamido)acetic acid] | – | > 500
12 | O=C(NCc1ccc(Cl)s1)Nc1ccc(-n2c(=O)[nH]c3cc(NCc4ccc(F)cc4)ccc3c2=O)cc1 [Compound 107, 1-((5-chlorothiophen-2-yl)methyl)-3-(4-(7-(4-fluorobenzylamino)-2,4-dioxo-1,2-dihydroquinazolin-3(4H)-yl)phenyl)urea] | – | < 50
13 | CNc1cc2[nH]c(=O)n(-c3ccc(C(=O)NC(C(=O)O)c4ccc(Cl)s4)cc3OC)c(=O)c2cc1F (centres unmarked) [Compound 51, 2-(5-chlorothiophen-2-yl)-2-(4-(6-fluoro-7-(methylamino)-2,4-dioxo-1,2-dihydroquinazolin-3(4H)-yl)-3-methoxybenzamido)acetic acid] | – | > 500
14 | CNc1cc2c(cc1F)C(=O)N(c1ccc(CC(=O)NC(C(=O)N(C)C)c3ccc(Cl)s3)cc1)CO2 (centres unmarked) [Compound 120, 2-(5-chlorothiophen-2-yl)-2-(2-(4-(6-fluoro-7-(methylamino)-4-oxo-2H-benzo[e][1,3]oxazin-3(4H)-yl)phenyl)acetamido)-N,N-dimethylacetamide] | – | > 500
15 | CNc1cc2[nH]c(=O)n(-c3ccc(C(=O)NC(C(=O)O)c4cccc(Cl)c4)cc3)c(=O)c2cc1F (centres unmarked) [Compound 15, 2-(3-chlorophenyl)-2-(4-(6-fluoro-7-(methylamino)-2,4-dioxo-1,2-dihydroquinazolin-3(4H)-yl)benzamido)acetic acid] | – | 50 to 500
16 | CNc1cc2c(cc1F)C(=O)N(c1ccc(C(=O)N[C@H](C(=O)O)c3ccccc3)cc1)CO2 [Compound 65, (S)-2-(4-(6-fluoro-7-(methylamino)-4-oxo-2H-benzo[e][1,3]oxazin-3(4H)-yl)benzamido)-2-phenylacetic acid] | – | 50 to 500
17 | CNc1cc2[nH]c(=O)n(-c3ccc(C(=O)NC(C(=O)O)c4ccc(Cl)cc4)cc3)c(=O)c2cc1F (centres unmarked) [Compound 14, 2-(4-chlorophenyl)-2-(4-(6-fluoro-7-(methylamino)-2,4-dioxo-1,2-dihydroquinazolin-3(4H)-yl)benzamido)acetic acid] | – | > 500
18 | CNc1cc2c(cc1F)C(=O)N(c1ccc(C(=O)NC(c3ccc(Cl)s3)c3nnnn3C)cc1)CO2 (centres unmarked) [Compound 73, N-((5-chlorothiophen-2-yl)(1-methyl-1H-tetrazol-5-yl)methyl)-4-(6-fluoro-7-(methylamino)-4-oxo-2H-benzo[e][1,3]oxazin-3(4H)-yl)benzamide] | – | 50 to 500
19 | CNc1cc2c(cc1F)C(=O)N(c1ccc(C(=O)N(CCC(=O)O)Cc3ccc(Cl)s3)cc1)CO2 [Compound 86, 3-(N-((5-chlorothiophen-2-yl)methyl)-4-(6-fluoro-7-(methylamino)-4-oxo-2H-benzo[e][1,3]oxazin-3(4H)-yl)benzamido)propanoic acid] | – | > 500
20 | CNc1cc2c(cc1F)C(=O)N(c1ccc(C(=O)NC(C(=O)OC)c3ccc(Cl)s3)cc1)CO2 (centres unmarked) [Compound 66, methyl 2-(5-chlorothiophen-2-yl)-2-(4-(6-fluoro-7-(methylamino)-4-oxo-2H-benzo[e][1,3]oxazin-3(4H)-yl)benzamido)acetate] | – | 50 to 500
21 | COc1cc2ccn(-c3ccc(C(=O)NC(C(=O)O)c4ccc(Cl)s4)cc3)c(=O)c2cc1F (centres unmarked) [Compound 92, 2-(5-chlorothiophen-2-yl)-2-(4-(7-fluoro-6-methoxy-1-oxoisoquinolin-2(1H)-yl)benzamido)acetic acid] | – | > 500
22 | CC(C)Oc1ccc2[nH]c(=O)n(-c3ccc(C(=O)NC(C(=O)O)c4ccc(Cl)s4)cc3)c(=O)c2c1 (centres unmarked) [Compound 38, 2-(5-chlorothiophen-2-yl)-2-(4-(6-isopropoxy-2,4-dioxo-1,2-dihydroquinazolin-3(4H)-yl)benzamido)acetic acid] | – | > 500
